# Laboratory results as given in patent US20050215551A1, “1-[2H-1-benzopyran-2-one-8-yl]- piperazine derivatives for the treatment of movement disorders” (SOLVAY PHARMACEUTICALS B.V., priority 2004, published 2005).
# Columns and labels:
# 5-HT1A = 5-HT1A (Homo sapiens, UniProt P08908); assay: Receptor binding 5-HT1A; settings: radioligand [3H]-8-OH-DPAT, read-out: Ki(nM) Compound 1
# 5-HT2B = 5-HT2B (Homo sapiens, UniProt P41595); assay: Receptor binding 5-HT2B; settings: radioligand [3H]-LSD, read-out: Ki(nM) Compound 1
# Procedure: (§1) Receptor binding data were obtained by CEREP (128, rue Danton, 92500 Rueil-Malmaison, France) or at Solvay Pharmaceuticals B.V., using well documented standard procedures. Affinity for 5-HT1A receptors for instance, was determined by testing the ability of the compounds of the invention to displace [^3H]-2-(di-n-propylamino)-8-hydroxytetralin ([^3H]-8-OH-DPAT) from its specific binding sites in rat frontal cortex homogenates. This test is based on the method described by Gozlan et al. (Nature, 305, (1983), pages 140-142).
# (§2) The binding data collected in the table below were either obtained by CEREP (128, rue Danton, 92500 Rueil-Malmaison, France) or at Solvay Pharmaceuticals B.V., using well documented standard procedures.
# 5-HT2C = 5-HT2C (Homo sapiens, UniProt P28335); assay: Receptor binding 5-HT2C; settings: radioligand [125I]-DOI, read-out: Ki(nM) Compound 1
# Procedure: as §1, §2
# 5-HT3 = 5-HT3 (Homo sapiens, UniProt P46098); assay: Receptor binding 5-HT3; settings: radioligand [3H]-BRL 43694, read-out: Ki(nM) Compound 1
# Procedure: as §1, §2
# 5-HT7 = 5-HT7 (Homo sapiens, UniProt P34969); assay: Receptor binding 5-HT7; settings: radioligand [3H]-LSD, read-out: Ki(nM) Compound 1
# Sequence of 5-HT7 (P34969 whole entry): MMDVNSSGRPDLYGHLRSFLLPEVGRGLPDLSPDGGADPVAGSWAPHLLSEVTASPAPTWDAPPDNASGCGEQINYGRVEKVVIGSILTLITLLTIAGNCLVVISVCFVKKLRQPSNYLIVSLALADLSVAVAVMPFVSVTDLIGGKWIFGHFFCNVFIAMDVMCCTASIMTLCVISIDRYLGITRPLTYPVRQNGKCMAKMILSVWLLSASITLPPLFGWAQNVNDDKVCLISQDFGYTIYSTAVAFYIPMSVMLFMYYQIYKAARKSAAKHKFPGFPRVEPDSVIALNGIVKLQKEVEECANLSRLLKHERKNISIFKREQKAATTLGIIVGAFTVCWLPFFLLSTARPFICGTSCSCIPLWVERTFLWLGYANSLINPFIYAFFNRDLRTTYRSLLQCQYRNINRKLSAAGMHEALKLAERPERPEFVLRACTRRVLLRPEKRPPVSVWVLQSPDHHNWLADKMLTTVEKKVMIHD
# Procedure: as §1, §2
# α1A-adrenergic = α1A-adrenergic (Rattus norvegicus, UniProt P43140); assay: Receptor binding α1A-adrenergic; settings: radioligand [3H]-prazosin, read-out: Ki(nM) Compound 1
# Procedure: as §1, §2
# β3-adrenergic = β3-adrenergic (Homo sapiens, UniProt P13945); assay: Receptor binding β3-adrenergic; settings: radioligand [125I]-iodocyanopindolol, read-out: Ki(nM) Compound 1
# Procedure: as §1, §2
# Dopamine-D2 = Dopamine-D2 (Homo sapiens, UniProt P14416); assay: Receptor binding Dopamine-D2; settings: radioligand [3H]-spiperone, read-out: Ki(nM) Compound 1
# Procedure: as §1, §2
# Dopamine-D3 = Dopamine-D3 (Homo sapiens, UniProt P35462); assay: Receptor binding Dopamine-D3; settings: radioligand [3H]-spiperone, read-out: Ki(nM) Compound 1
# Sequence of Dopamine-D3 (P35462 whole entry): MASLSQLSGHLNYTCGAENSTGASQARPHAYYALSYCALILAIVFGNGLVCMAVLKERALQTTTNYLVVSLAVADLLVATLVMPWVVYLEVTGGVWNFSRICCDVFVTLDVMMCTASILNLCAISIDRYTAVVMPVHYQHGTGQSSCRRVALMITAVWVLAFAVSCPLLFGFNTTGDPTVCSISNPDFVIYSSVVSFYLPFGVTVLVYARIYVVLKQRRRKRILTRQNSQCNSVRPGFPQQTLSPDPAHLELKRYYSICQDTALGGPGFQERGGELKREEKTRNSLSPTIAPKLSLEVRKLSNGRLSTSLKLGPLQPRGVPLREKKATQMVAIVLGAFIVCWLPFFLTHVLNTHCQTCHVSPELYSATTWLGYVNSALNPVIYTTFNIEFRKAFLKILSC
# Procedure: as §1, §2
# Dopamine-D5 = Dopamine-D5 (Homo sapiens, UniProt P21918); assay: Receptor binding Dopamine-D5; settings: radioligand [3H]-SCH 23390, read-out: Ki(nM) Compound 1
# Procedure: as §1, §2
# Muscarine-M1 = Muscarine-M1 (Homo sapiens, UniProt P11229); assay: Receptor binding Muscarine-M1; settings: radioligand [3H]-pirenzepine, read-out: Ki(nM) Compound 1
# Procedure: as §1, §2
# Muscarine-M3 = Muscarine-M3 (Homo sapiens, UniProt P20309); assay: Receptor binding Muscarine-M3; settings: radioligand [3H]-4-DAMP, read-out: Ki(nM) Compound 1
# Procedure: as §1, §2
# Histamine-H1 = Histamine-H1 (Homo sapiens, UniProt P35367); assay: Receptor binding Histamine-H1; settings: radioligand [3H]-pyrilamine, read-out: Ki(nM) Compound 1
# Procedure: as §1, §2
# nicotine = nicotine (Rattus norvegicus, UniProt P09483+P12390); assay: Receptor binding nicotine; settings: radioligand [3H]-cytisine, read-out: Ki(nM) Compound 1
# Sequence of nicotine (P12390 25-500): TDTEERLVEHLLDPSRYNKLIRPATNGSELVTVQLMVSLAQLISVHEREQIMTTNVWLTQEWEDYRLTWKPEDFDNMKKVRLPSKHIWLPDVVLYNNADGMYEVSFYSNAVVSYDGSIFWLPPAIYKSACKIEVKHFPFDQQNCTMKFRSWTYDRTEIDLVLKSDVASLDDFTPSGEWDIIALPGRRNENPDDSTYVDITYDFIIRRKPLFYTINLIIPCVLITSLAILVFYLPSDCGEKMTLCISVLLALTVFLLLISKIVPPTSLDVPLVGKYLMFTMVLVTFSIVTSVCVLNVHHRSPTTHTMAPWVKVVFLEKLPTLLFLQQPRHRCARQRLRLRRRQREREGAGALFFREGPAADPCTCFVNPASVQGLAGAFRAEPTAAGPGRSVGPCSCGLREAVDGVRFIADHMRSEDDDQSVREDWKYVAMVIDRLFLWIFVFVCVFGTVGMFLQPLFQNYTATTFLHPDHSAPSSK
# Sequence of nicotine (P09483 31-630): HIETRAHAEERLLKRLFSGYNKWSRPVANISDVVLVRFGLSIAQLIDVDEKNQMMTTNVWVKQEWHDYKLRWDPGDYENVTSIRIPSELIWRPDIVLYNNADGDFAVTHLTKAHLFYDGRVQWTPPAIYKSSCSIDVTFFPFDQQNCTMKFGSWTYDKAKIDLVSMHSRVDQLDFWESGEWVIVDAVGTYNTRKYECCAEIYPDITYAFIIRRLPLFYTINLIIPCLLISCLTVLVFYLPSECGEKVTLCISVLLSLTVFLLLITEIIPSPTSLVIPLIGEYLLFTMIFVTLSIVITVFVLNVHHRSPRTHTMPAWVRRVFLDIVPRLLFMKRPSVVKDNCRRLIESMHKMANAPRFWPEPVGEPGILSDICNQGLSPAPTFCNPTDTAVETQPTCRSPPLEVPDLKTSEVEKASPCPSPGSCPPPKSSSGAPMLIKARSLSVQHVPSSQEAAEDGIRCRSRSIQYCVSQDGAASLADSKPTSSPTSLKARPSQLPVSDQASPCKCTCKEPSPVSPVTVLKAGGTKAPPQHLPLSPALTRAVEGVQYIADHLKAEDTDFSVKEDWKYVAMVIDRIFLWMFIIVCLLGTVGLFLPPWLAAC
# Procedure: as §1, §2
# μ-opiate = μ-opiate (Rattus norvegicus, UniProt P33535); assay: Receptor binding μ-opiate; settings: radioligand [3H]-DAMGO, read-out: Ki(nM) Compound 1
# Procedure: as §1, §2
# δ-opiate = δ-opiate (Rattus norvegicus, UniProt P33533); assay: Receptor binding δ-opiate; settings: radioligand [3H]-DPDPE, read-out: Ki(nM) Compound 1
# Procedure: as §1, §2
# sigma-SG2 = sigma-SG2 (Rattus norvegicus, UniProt Q5U3Y7); assay: Receptor binding sigma-SG2; settings: radioligand [3H]-DTG, read-out: Ki(nM) Compound 1
# Sequence of sigma-SG2 (Q5U3Y7 whole entry): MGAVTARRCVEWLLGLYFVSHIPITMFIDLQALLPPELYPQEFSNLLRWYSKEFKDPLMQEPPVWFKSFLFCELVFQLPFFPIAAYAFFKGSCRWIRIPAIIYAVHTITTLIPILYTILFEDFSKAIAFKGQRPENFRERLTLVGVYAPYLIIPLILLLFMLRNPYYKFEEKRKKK
# Procedure: as §1, §2
# Ca++-channel = Ca++-channel (Rattus norvegicus, UniProt Q02294); assay: biochemical; assay type: binding
# Sequence of Ca++-channel (Q02294 whole entry): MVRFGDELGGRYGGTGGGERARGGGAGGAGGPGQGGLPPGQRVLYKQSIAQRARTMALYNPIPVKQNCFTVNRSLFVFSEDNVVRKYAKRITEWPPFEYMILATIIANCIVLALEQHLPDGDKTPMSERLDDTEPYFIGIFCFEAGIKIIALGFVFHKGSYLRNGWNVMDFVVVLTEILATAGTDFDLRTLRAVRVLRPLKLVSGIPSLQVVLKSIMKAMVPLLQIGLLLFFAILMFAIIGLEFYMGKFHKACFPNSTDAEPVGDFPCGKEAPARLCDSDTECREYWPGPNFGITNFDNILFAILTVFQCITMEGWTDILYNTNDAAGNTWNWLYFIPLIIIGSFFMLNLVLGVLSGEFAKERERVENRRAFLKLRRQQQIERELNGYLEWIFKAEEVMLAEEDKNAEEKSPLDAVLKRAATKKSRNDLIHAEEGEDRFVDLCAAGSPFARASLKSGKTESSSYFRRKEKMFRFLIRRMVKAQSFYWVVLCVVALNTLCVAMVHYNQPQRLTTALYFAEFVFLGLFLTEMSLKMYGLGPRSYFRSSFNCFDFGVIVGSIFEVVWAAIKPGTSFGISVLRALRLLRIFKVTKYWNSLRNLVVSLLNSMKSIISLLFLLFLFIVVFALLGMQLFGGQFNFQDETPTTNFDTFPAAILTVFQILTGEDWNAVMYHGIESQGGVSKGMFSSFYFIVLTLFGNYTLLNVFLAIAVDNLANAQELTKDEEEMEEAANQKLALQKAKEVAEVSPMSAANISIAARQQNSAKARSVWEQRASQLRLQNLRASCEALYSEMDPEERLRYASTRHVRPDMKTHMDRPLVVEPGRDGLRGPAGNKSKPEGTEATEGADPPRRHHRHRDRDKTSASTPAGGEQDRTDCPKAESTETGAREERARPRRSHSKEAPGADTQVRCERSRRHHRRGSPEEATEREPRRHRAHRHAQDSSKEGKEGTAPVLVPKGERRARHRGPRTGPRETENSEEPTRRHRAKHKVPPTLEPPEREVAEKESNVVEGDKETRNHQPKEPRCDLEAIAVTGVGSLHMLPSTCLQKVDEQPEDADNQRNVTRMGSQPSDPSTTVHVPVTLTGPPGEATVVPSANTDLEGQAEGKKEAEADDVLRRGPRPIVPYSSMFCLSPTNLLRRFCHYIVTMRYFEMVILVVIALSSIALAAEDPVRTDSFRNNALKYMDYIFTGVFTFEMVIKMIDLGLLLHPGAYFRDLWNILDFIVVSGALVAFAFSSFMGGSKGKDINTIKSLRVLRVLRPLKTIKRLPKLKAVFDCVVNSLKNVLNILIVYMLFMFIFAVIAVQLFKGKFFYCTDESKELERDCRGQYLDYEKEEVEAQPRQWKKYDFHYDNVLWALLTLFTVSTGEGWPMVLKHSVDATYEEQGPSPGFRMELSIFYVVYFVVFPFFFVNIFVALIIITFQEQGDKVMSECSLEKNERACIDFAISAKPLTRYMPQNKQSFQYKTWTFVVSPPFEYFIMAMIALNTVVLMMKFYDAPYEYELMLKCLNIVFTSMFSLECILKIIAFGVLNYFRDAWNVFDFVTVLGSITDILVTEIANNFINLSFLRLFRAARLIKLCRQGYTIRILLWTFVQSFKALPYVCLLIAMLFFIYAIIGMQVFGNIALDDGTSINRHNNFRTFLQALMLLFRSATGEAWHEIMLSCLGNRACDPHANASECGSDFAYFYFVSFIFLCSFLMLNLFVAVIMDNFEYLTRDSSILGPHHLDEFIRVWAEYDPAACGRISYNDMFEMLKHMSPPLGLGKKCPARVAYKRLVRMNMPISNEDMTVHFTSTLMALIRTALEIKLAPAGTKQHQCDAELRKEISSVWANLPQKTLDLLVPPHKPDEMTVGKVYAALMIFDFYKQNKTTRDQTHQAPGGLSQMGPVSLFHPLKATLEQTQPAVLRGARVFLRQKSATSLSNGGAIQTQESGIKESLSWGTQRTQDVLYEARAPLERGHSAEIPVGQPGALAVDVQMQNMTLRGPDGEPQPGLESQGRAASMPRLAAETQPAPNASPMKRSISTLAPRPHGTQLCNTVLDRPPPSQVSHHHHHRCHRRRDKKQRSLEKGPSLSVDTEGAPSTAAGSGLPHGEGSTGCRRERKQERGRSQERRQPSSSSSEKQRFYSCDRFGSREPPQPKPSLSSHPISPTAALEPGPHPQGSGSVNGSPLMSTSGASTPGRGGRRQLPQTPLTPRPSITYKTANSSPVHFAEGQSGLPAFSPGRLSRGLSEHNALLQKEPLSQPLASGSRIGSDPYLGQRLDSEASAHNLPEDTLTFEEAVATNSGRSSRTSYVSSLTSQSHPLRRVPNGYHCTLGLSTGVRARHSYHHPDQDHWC
# Sequence of Ca++-channel (P54287 whole entry partner): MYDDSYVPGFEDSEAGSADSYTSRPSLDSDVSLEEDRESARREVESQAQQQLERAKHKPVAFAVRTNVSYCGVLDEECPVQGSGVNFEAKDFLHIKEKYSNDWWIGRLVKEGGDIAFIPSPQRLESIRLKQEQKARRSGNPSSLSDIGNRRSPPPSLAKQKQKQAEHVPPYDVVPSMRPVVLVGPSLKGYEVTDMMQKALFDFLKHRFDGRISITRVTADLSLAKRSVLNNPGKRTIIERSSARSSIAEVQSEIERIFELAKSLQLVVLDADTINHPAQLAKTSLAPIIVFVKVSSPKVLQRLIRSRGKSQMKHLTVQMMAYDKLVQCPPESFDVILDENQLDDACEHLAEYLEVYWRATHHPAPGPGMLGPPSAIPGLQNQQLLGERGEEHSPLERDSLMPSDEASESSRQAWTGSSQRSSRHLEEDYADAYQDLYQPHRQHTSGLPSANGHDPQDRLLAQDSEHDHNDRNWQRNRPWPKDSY
# Adenosine-A3 = Adenosine-A3 (Homo sapiens, UniProt P0DMS8); assay: Receptor binding Adenosine-A3; settings: radioligand [3H]-AB-MECA, read-out: Ki(nM) Compound 1
# Procedure: as §1, §2
# CCKB = CCKB (Homo sapiens, UniProt P32239); assay: Receptor binding CCKB; settings: radioligand [3H]-CCK8, read-out: Ki(nM) Compound 1
# Procedure: as §1, §2
# CGRP = CGRP (Homo sapiens, UniProt O60894+Q16602); assay: Receptor binding CGRP; settings: radioligand [125I]-CGRPa, read-out: Ki(nM) Compound 1
# Procedure: as §1, §2
# Endothelin-ETA = Endothelin-ETA (Homo sapiens, UniProt P25101); assay: Receptor binding Endothelin-ETA; settings: radioligand [125I]-endothelin-1, read-out: Ki(nM) Compound 1
# Procedure: as §1, §2
# Galanin-GAL2 = Galanin-GAL2 (Homo sapiens, UniProt O43603); assay: Receptor binding Galanin-GAL2; settings: radioligand [125I]-galanin, read-out: Ki(nM) Compound 1
# Procedure: as §1, §2
# Neuropeptide Y2 = Neuropeptide Y2 (Homo sapiens, UniProt P49146); assay: Receptor binding Neuropeptide Y2; settings: radioligand [125I]-PYY, read-out: Ki(nM) Compound 1
# Procedure: as §1, §2
# Prostaglandin-H2 = Prostaglandin-H2 (Homo sapiens, UniProt P21731); assay: Receptor binding Prostaglandin-H2; settings: radioligand [3H]-SQ 29548, read-out: Ki(nM) Compound 1
# Procedure: as §1, §2
# Vasopressine-V1A = Vasopressine-V1A (Homo sapiens, UniProt P37288); assay: Receptor binding Vasopressine-V1A; settings: radioligand [3H]-vasopressine, read-out: Ki(nM) Compound 1
# Procedure: as §1, §2
structure (smiles),measurement,setting,value
"Nc1cc2cccc(N3CCNCC3)c2oc1=O [Compound 1, 3-amino-8-(1-piperazinyl)-2H-1-benzopyran-2-one]",Ki,5-HT1A,0.25 nM
same,Ki,5-HT2B,320 nM
same,Ki,5-HT2C,> 1000 nM
same,Ki,5-HT3,250 nM
same,Ki,5-HT7,3.2 nM
same,Ki,α1A-adrenergic,630 nM
same,Ki,β3-adrenergic,> 1000 nM
same,Ki,Dopamine-D2,> 1000 nM
same,Ki,Dopamine-D3,> 1000 nM
same,Ki,Dopamine-D5,> 1000 nM
same,Ki,Muscarine-M1,> 1000 nM
same,Ki,Muscarine-M3,> 1000 nM
same,Ki,Histamine-H1,> 1000 nM
same,Ki,nicotine,> 10000 nM
same,Ki,μ-opiate,> 1000 nM
same,Ki,δ-opiate,> 1000 nM
same,Ki,sigma-SG2,> 1000 nM
same,Ki,Ca++-channel,> 1 µM
same,Ki,Adenosine-A3,> 1000 nM
same,Ki,CCKB,> 1000 nM
same,Ki,CGRP,> 1000 nM
same,Ki,Endothelin-ETA,> 1000 nM
same,Ki,Galanin-GAL2,> 1000 nM
same,Ki,Neuropeptide Y2,> 1000 nM
same,Ki,Prostaglandin-H2,> 1000 nM
same,Ki,Vasopressine-V1A,> 1000 nM
